Measured values as given in publication PMC5607265, “Design, synthesis and structure-activity relationship of 3,6-diaryl-7H-[1,2,4]triazolo[3,4-b][1,3,4]thiadiazines as novel tubulin inhibitors” (Scientific Reports, 2017).
Entries after “also recorded” stand apart in the source; their conditions may differ. Where two headings read alike, the source gives them in different places.

Tests used:
[1] = system: lung adenocarcinoma A549 cells; assay: MTT antiproliferative assay, A549; format: cell-based, human; conditions: read-out: IC50 A549
Method: (§1) The SGC-7901, A549 and HT-1080 cell lines were purchased from the American Type Culture Collection (ATCC, Manassas, VA, USA). […] Briefly, approximately 3 × 10^4 cells were seeded in a 96-well plate. After 24 h of incubation at 37 °C, cells were exposed to compounds of differing concentrations for 24 h. After treatment, cells were washed with 1X PBS followed by addition of 100 µL of 0.05% MTT reagent to each well, followed by incubation for 4 h at 37 °C. After incubation, the supernatant from each well was carefully removed and the formazan crystals were dissolved in 100 µL of DMSO. The colour density was measured spectrophotometrically at 490 nm using a microplate reader (SpectraMax Plus384, Molecular Devices Corp., USA). The data were calculated and plotted as percent viability compared to control.
as §1

[2] = system: fibrosarcoma HT-1080 cells; assay: MTT antiproliferative assay, HT-1080; format: cell-based, human; conditions: read-out: IC50 HT-1080
Method: as §1, §1

[3] = system: SGC-7901, A549 and HT-1080 cell lines; assay: MTT antiproliferative assay, span over the three cell lines; format: cell-based, human; conditions: for antiproliferative activity in words: SGC-7901, A549 and HT-1080; for IC50: read-out: IC50 range against the three human cancer cell lines
Method: as §1, §1

[4] = system: gastric adenocarcinoma SGC-7901 cells; assay: MTT antiproliferative assay, SGC-7901; format: cell-based, human; conditions: read-out: IC50 SGC-7901
Method: as §1, §1

[5] = MTT assay, 24 h exposure, triplicate
[6] = range over SGC-7901, A549 and HT-1080, MTT assay
[7] = Homo sapiens, A549, MTT assay, 24 h exposure, triplicate
[8] = Homo sapiens, HT-1080, MTT assay, 24 h exposure, triplicate
[9] = Homo sapiens, SGC-7901, MTT assay, 24 h exposure, triplicate

COc1ccc(C2=Nn3c(nnc3-c3ccc(OC)c(OC)c3OC)SC2)cc1N [Compound 4j, 3-(2,3,4-Trimethoxyphenyl)-6-(3-amino-4-methoxyphenyl)-7H-[1,2,4]triazolo[3,4-b][1,3,4]thiadiazine] gave a melting point of 93 to 94 °C, an IC50 ([1]; Homo sapiens, A549, 24 h) of 1.58 µM and an IC50 ([2]; Homo sapiens, HT-1080, 24 h) of 0.89 µM. For the same compound, the “antiproliferative activity in words” value ([3]; MTT assay) was “only moderate activity” and the IC50 ([4]; Homo sapiens, SGC-7901, 24 h) was 1.57 µM.
In the case of COc1cc(-c2nnc3n2N=C(c2ccc(C)cc2)CS3)cc(OC)c1OC [Compound 5b, 3-(3,4,5-Trimethoxyphenyl)-6-(4-methyphenyl)-7H-[1,2,4]triazolo[3,4-b][1,3,4]thiadiazine], the IC50 [1, 5] is reported as 0.019 µM, the IC50 [2, 5] is reported as 0.016 µM and the “antiproliferative activity in words” value ([3]; MTT assay) is reported as “IC50 values at the nanomolar level”. For the same compound, the IC50 [3, 6] was 0.016 to 0.027 µM and the IC50 [4, 5] was 0.027 µM.
Work on COc1ccc(C2=Nn3c(nnc3-c3ccc(OC)c(OC)c3OC)SC2)cc1O [Compound 4l, 3-(2,3,4-Trimethoxyphenyl)-6-(3-hydroxy-4-methoxyphenyl)-7H-[1,2,4]triazolo[3,4-b][1,3,4]thiadiazine] yielded a melting point of 88 to 89 °C, an IC50 [1, 7] of 7.73 µM and an IC50 [2, 8] of 0.63 µM. The “antiproliferative activity in words” value ([3]; MTT assay) was “only moderate activity” and the IC50 [4, 9] was 16.3 µM.
COc1ccc(C2=Nn3c(nnc3-c3cc(OC)c(OC)c(OC)c3)SC2)cc1O [Compound 5i, 3-(3,4,5-Trimethoxyphenyl)-6-(3-hydroxy-4-methoxyphenyl)-7H-[1,2,4]triazolo[3,4-b][1,3,4]thiadiazine] gave a melting point of 95 to 97 °C, an IC50 ([1]; Homo sapiens, A549, 24 h) of 0.071 µM and an IC50 ([2]; Homo sapiens, HT-1080, 24 h) of 0.047 µM. For the same compound, the IC50 ([3]; Homo sapiens) was 0.026 to 0.071 µM, the “antiproliferative activity in words” value ([3]; MTT assay) was “IC50 values at the nanomolar level” and the IC50 ([4]; Homo sapiens, SGC-7901, 24 h) was 0.026 µM.
Compound COc1ccc(C2=Nn3c(nnc3-c3ccc4c(c3)OCO4)SC2)cc1F [Compound 6a, 3-(3,4-Methylenedioxyphenyl)-6-(3-fluoro-4-methoxyphenyl)-7H-[1,2,4]triazolo[3,4-b][1,3,4]thiadiazine] has a melting point of 93 to 95 °C, an IC50 [1, 7] of 0.19 µM and an IC50 [2, 8] of 0.13 µM. It also gave an IC50 [4, 9] of 0.065 µM.
COc1ccc(-c2nnc3n2N=C(c2ccc(OC)c(N)c2)CS3)cc1 [Compound 6k, 3-(4-Methoxyphenyl)-6-(3-amino-4-methoxyphenyl)-7H-[1,2,4]triazolo[3,4-b][1,3,4]thiadiazine] gave a melting point of 214 to 215 °C, an IC50 [1, 7] of 0.038 µM and an IC50 [2, 8] of 0.023 µM. The “antiproliferative activity in words” value ([3]; MTT assay) was “nanomolar IC50 values against all tested cells; also recorded: IC50 values at the nanomolar level” and the IC50 [4, 9] was 0.036 µM.
For COc1ccc(-c2nnc3n2N=C(c2ccc(SC)cc2)CS3)c(OC)c1OC [Compound 4g, 3-(2,3,4-Trimethoxyphenyl)-6-(4-methylthiophenyl)-7H-[1,2,4]triazolo[3,4-b][1,3,4]thiadiazine], the melting point was 86 to 88 °C, the IC50 [1, 7] was 12.5 µM and the IC50 [2, 8] was 2.7 µM. The IC50 [4, 9] was 8.02 µM.
With COc1ccc(C2=Nn3c(nnc3-c3ccc4c(c3)OCO4)SC2)cc1N [Compound 6c, 3-(3,4-Methylenedioxyphenyl)-6-(3-amino-4-methoxyphenyl)-7H-[1,2,4]triazolo[3,4-b][1,3,4]thiadiazine] the melting point was 88 to 90 °C, the IC50 [1, 7] was 0.026 µM and the IC50 [2, 8] was 0.021 µM. For the same compound, the “antiproliferative activity in words” value ([3]; MTT assay) was “nanomolar IC50 values against all tested cells; also recorded: IC50 values at the nanomolar level” and the IC50 [4, 9] was 0.018 µM.
COc1ccc(C2=Nn3c(nnc3-c3ccc(OC)c(OC)c3)SC2)cc1N [Compound 6g, 3-(3,4-Dimethoxyphenyl)-6-(3-amino-4-methoxyphenyl)-7H-[1,2,4]triazolo[3,4-b][1,3,4]thiadiazine] showed a melting point of 213 to 215 °C, an IC50 [1, 7] of 0.032 µM and an IC50 [2, 8] of 0.018 µM. For the same compound, the “antiproliferative activity in words” value ([3]; MTT assay) was “IC50 values at the nanomolar level”, the “antiproliferative activity in words” value ([3]; MTT assay, listed as 6 g) was “nanomolar IC50 values against all tested cells” and the IC50 [4, 9] was 0.023 µM.
With COc1cc(-c2nnc3n2N=C(c2ccc(Cl)cc2)CS3)cc(OC)c1OC [Compound 5a, 3-(3,4,5-Trimethoxyphenyl)-6-(4-chlorophenyl)-7H-[1,2,4]triazolo[3,4-b][1,3,4]thiadiazine] the melting point was 125 to 127 °C, the IC50 [1, 7] was 0.27 µM and the IC50 [2, 8] was 0.88 µM. For the same compound, the IC50 [4, 9] was 1.37 µM.
Work on COc1ccc(-c2nnc3n2N=C(c2ccc(F)cc2)CS3)c(OC)c1OC [Compound 4a, 3-(2,3,4-Trimethoxyphenyl)-6-(4-fluorophenyl)-7H-[1,2,4]triazolo[3,4-b][1,3,4]thiadiazine] yielded a melting point of 92 to 94 °C, an IC50 [1, 7] of 21.2 µM and an IC50 [2, 8] of 31.3 µM. For the same compound, the IC50 [4, 9] was 32.6 µM.
In the case of COc1ccc(-c2nnc3n2N=C(c2ccc(Br)cc2)CS3)c(OC)c1OC [Compound 4c, 3-(2,3,4-Trimethoxyphenyl)-6-(4-bromophenyl)-7H-[1,2,4]triazolo[3,4-b][1,3,4]thiadiazines], the melting point is reported as 96 to 98 °C, the IC50 [1, 7] is reported as 7.37 µM and the IC50 [2, 8] is reported as 3.77 µM. It also gave an IC50 [4, 9] of 5.55 µM.
Compound COc1ccc(C2=Nn3c(nnc3-c3ccc4c(c3)OCO4)SC2)cc1[N+](=O)[O-] [Compound 6b, 3-(3,4-Methylenedioxyphenyl)-6-(3-nitro-4-methoxyphenyl)-7H-[1,2,4]triazolo[3,4-b][1,3,4]thiadiazine] has a melting point of 90 to 92 °C, an IC50 [1, 7] of 15.7 µM and an IC50 [2, 8] of 0.08 µM. For the same compound, the IC50 [4, 9] was 10.5 µM.
In the case of COc1ccc(C2=Nn3c(nnc3-c3ccc4c(c3)OCO4)SC2)cc1OCc1ccccc1 [Compound 6d, 3-(3,4-Methylenedioxyphenyl)-6-(3-benzyloxy-4-methoxyphenyl)-7H-[1,2,4]triazolo[3,4-b][1,3,4]thiadiazine], the melting point is reported as 86 to 88 °C, the IC50 [1, 7] is reported as 16.3 µM and the IC50 [2, 8] is reported as 7.32 µM. The IC50 [4, 9] was 8.49 µM.
In the case of COc1cc(-c2nnc3n2N=C(c2ccc(SC)cc2)CS3)cc(OC)c1OC [Compound 5d, 3-(3,4,5-Trimethoxyphenyl)-6-(4-methylthiophenyl)-7H-[1,2,4]triazolo[3,4-b][1,3,4]thiadiazine], the melting point is reported as 92 to 94 °C, the IC50 [1, 7] is reported as 0.46 µM and the IC50 [2, 8] is reported as 0.18 µM. It also gave an IC50 [4, 9] of 0.13 µM.
For COc1ccc(C2=Nn3c(nnc3-c3ccc(OC)c(OC)c3OC)SC2)cc1[N+](=O)[O-] [Compound 4i, 3-(2,3,4-Trimethoxyphenyl)-6-(3-nitro-4-methoxyphenyl)-7H-[1,2,4]triazolo[3,4-b][1,3,4]thiadiazine], the melting point was 134 to 136 °C, the IC50 [1, 7] was 16.5 µM and the IC50 [2, 8] was 15.9 µM. The IC50 [4, 9] was 13.2 µM.
With COc1ccc(-c2nnc3n2N=C(c2ccc(C)cc2)CS3)c(OC)c1OC [Compound 4d, 3-(2,3,4-Trimethoxyphenyl)-6-(4-methyphenyl)-7H-[1,2,4]triazolo[3,4-b][1,3,4]thiadiazine] the IC50 [1, 5] was 0.073 µM, the IC50 [2, 5] was 0.028 µM and the “antiproliferative activity in words” value ([3]; MTT assay) was “IC50 values at the nanomolar level”. For the same compound, the IC50 [3, 6] was 0.028 to 0.073 µM and the IC50 [4, 5] was 0.066 µM.
In the case of COc1ccc(C2=Nn3c(nnc3-c3cc(OC)c(OC)c(OC)c3)SC2)cc1OCc1ccccc1 [Compound 5h, 3-(3,4,5-Trimethoxyphenyl)-6-(3-benzyloxy-4-methoxyphenyl)-7H-[1,2,4]triazolo[3,4-b][1,3,4]thiadiazine], the melting point is reported as 93 to 94 °C, the IC50 [1, 7] is reported as 2.94 µM and the IC50 [2, 8] is reported as 1.57 µM. It also gave an IC50 [4, 9] of 1.66 µM.
COc1ccc(C2=Nn3c(nnc3-c3ccc(OC)c(OC)c3OC)SC2)cc1OCc1ccccc1 [Compound 4k, 3-(2,3,4-Trimethoxyphenyl)-6-(3-benzyloxy-4-methoxyphenyl)-7H-[1,2,4]triazolo[3,4-b][1,3,4]thiadiazine] gave a melting point of 85 to 86 °C, an IC50 [1, 7] of 8.9 µM and an IC50 [2, 8] of 28.3 µM. For the same compound, the IC50 [4, 9] was 28.9 µM.
For COc1ccc(-c2nnc3n2N=C(c2ccc(F)c(F)c2)CS3)c(OC)c1OC [Compound 4m, 3-(2,3,4-Trimethoxyphenyl)-6-(3,4-difluorophenyl)-7H-[1,2,4]triazolo[3,4-b][1,3,4]thiadiazine], the melting point was 95 to 97 °C, the IC50 [1, 7] was 78.1 µM and the IC50 [2, 8] was 81.3 µM. For the same compound, the IC50 [4, 9] was 73.2 µM.
With COc1ccc(C2=Nn3c(nnc3-c3ccc4c(c3)OCO4)SC2)cc1O [Compound 6e, 3-(3,4-Methylenedioxyphenyl)-6-(3-hydroxy-4-methoxyphenyl)-7H-[1,2,4]triazolo[3,4-b][1,3,4]thiadiazine] the melting point was 85 to 87 °C, the IC50 [1, 7] was 0.079 µM and the IC50 [2, 8] was 0.035 µM. The “antiproliferative activity in words” value ([3]; MTT assay) was “nanomolar IC50 values against all tested cells; also recorded: IC50 values at the nanomolar level” and the IC50 [4, 9] was 0.037 µM.
